Key:
[1] = system: Monographella nivalis (Microdochium nivale); test: Monographella nivalis (Microdochium nivale) / liquid culture (foot rot cereals); type: cell-based; details: PDB liquid culture, 24° C., growth inhibition determined photometrically 4-5 days after application, vs untreated control
Experimental: (§1) Example B5: Monographella nivalis (Microdochium nivale)/Liquid Culture (Foot Rot Cereals) Conidia of the fungus from cryogenic storage are directly mixed into nutrient broth (PDB potato dextrose broth). After placing a (DMSO) solution of test compound into a microtiter plate (96-well format), the nutrient broth containing the fungal spores is added. The test plates are incubated at 24° C. and the inhibition of growth is determined photometrically 4-5 days after application. […] […]-49, and P-50.

[2] = system: Blumeria graminis f. sp. tritici (Erysiphe graminis f. sp. tritici); test: Blumeria graminis f. sp. tritici / wheat / leaf disc preventative (powdery mildew on wheat); type: in vivo; details: foliar, wheat leaf segments cv. Kanzler, inoculated 1 day after application, assessed 6-8 days after application, vs untreated control
Experimental: Example B3: Blumeria graminis f. sp. tritici (Erysiphe graminis f. so. tritici)/Wheat/Leaf Disc Preventative (Powdery Mildew on Wheat) Wheat leaf segments cv. Kanzler are placed on agar in a multiwell plate (24-well format) and sprayed with the formulated test compound diluted in water. The leaf disks are inoculated by shaking powdery mildew infected plants above the test plates 1 day after application. The inoculated leaf disks are incubated at 20°° C. and 60% rh under a light regime of 24 h darkness followed by 12 h light/12 h darkness in a climate chamber and the activity of a compound is assessed as percent disease control compared to untreated when an appropriate level of disease damage appears on untreated check leaf segments (6-8 days after application). […]-45, and P-50.

[3] = system: Mycosphaerella graminicola (Septoria tritici); test: Mycosphaerella graminicola (Septoria tritici) / liquid culture (Septoria blotch); type: cell-based; details: Zymoseptoria tritici, PDB liquid culture, 24° C., growth inhibition determined photometrically 4-5 days after application, vs untreated control
Experimental: Example B12: Mycosphaerella graminicola (Septoria tritici)/Liquid Culture (Septoria Blotch) Conidia of the fungus from cryogenic storage are directly mixed into nutrient broth (PDB potato dextrose broth). After placing a (DMSO) solution of test compound into a microtiter plate (96-well format), the nutrient broth containing the fungal spores is added. The test plates are incubated at 24° C. and the inhibition of growth is determined photometrically 4-5 days after application. […] […]-48, and P-49.

[4] = system: Glomerella lagenarium (Colletotrichum lagenarium); test: Glomerella lagenarium (Colletotrichum lagenarium) / liquid culture (anthracnose); type: cell-based; details: Colletotrichum orbiculare, PDB liquid culture, 24° C., growth inhibition measured photometrically 3-4 days after application, vs untreated control
Experimental: as §1, with “B2: Glomerella lagenarium (Colletotrichum lagenarium)/Liquid” for “B5: Monographella nivalis (Microdochium nivale)/Liquid”, “(Anthracnose)” for “(Foot Rot Cereals)”, “measured” for “determined”, “3-4” for “4-5”

[5] = system: Mycosphaerella arachidis (Cercospora arachidicola); test: Mycosphaerella arachidis (Cercospora arachidicola) / liquid culture (early leaf spot); type: cell-based; details: PDB liquid culture, 24° C., growth inhibition determined photometrically 4-5 days after application, vs untreated control
Experimental: Example B6: Mycosphaerella arachidis (Cercospora arachidicola)/Liquid Culture (Early Leaf Spot) Conidia of the fungus from cryogenic storage are directly mixed into nutrient broth (PDB potato dextrose broth). After placing a (DMSO) solution of test compound into a microtiter plate (96-well format), the nutrient broth containing the fungal spores is added. The test plates are incubated at 24° C. and the inhibition of growth is determined photometrically 4-5 days after application. […] […]-44, and P-48.

Alternaria solani = Alternaria solani / tomato / leaf disc (early blight); type: in vivo; details: foliar, tomato leaf disks cv. Baby, inoculated 2 days after application, assessed 5-7 days after application, vs untreated control
Experimental: Example B1: Alternaria solani/Tomato/Leaf Disc (Early Blight) Tomato leaf disks cv. Baby are placed on agar in multiwell plates (24-well format) and sprayed with the formulated test compound diluted in water. The leaf disks are inoculated with a spore suspension of the fungus 2 days after application. The inoculated leaf disks are incubated at 23° C./21° C. […] […]-43, and P-44.

[6] = system: Magnaporthe grisea (Pyricularia oryzae); test: whole plant or invertebrate; type: in vivo; details: foliar, read-out: control of Magnaporthe grisea

COc1ncc(Nc2cc(F)cc(F)c2)nc1C(=O)NCc1ccc(Oc2ccccc2)cc1 [Compound P-30]
≥ 80%: inhibition of growth at 20 ppm [1] | pest or weed control at 200 ppm [2] | inhibition of growth at 20 ppm [3] | inhibition of growth at 20 ppm [4] | inhibition of growth at 20 ppm [5] | pest or weed control at 200 ppm (Alternaria solani) | pest or weed control at 200 ppm [6]

COc1ncc(Nc2cc(F)cc(F)c2)nc1C(=O)NC1COC(C2CC2)C1 (stereo not shown) [Compound P-24, N-(5-cyclopropyltetrahydrofuran-3-yl)-6-(3,5-difluoroanilino)-3-methoxy-pyrazine-2-carboxamide]
≥ 80%: inhibition of growth at 20 ppm [1] | pest or weed control at 200 ppm [2] | inhibition of growth at 20 ppm [3] | inhibition of growth at 20 ppm [4] | inhibition of growth at 20 ppm [5]

Cc1ncc(Nc2cc(F)nc(F)c2)nc1C(=O)NC1CCC1(C)C (stereo not shown) [Compound P-50, 6-[(2,6-difluoro-4-pyridyl)amino]-N-(2,2-dimethylcyclobutyl)-3-methyl-pyrazine-2-carboxamide]
≥ 80%: inhibition of growth at 20 ppm [1] | pest or weed control at 200 ppm [2] | inhibition of growth at 20 ppm [4] | pest or weed control at 200 ppm [6]

COc1ncc(Nc2cnsc2)nc1C(=O)NCc1ccc(Oc2ccccc2)cc1 [Compound P-13, 6-(isothiazol-4-ylamino)-3-methoxy-N-[(4-phenoxyphenyl)methyl] pyrazine-2-carboxamide]
≥ 80%: inhibition of growth at 20 ppm [1] | inhibition of growth at 20 ppm [3] | inhibition of growth at 20 ppm [4] | inhibition of growth at 20 ppm [5] | pest or weed control at 200 ppm (Alternaria solani) | pest or weed control at 200 ppm [6]

COc1ncc(NCC(C)(C)O)nc1C(=O)NC1CCC1(C)C (stereo not shown) [Compound P-8, N-(2,2-dimethylcyclobutyl)-6-[(2-hydroxy-2-methyl-propyl)amino]-3-methoxy-pyrazine-2-carboxamide]
≥ 80%: inhibition of growth at 20 ppm [1] | pest or weed control at 200 ppm [2] | inhibition of growth at 20 ppm [4]

COc1ncc(Nc2cc(F)cc(F)c2)nc1C(=O)NCC1(C)CCOC1 (stereo not shown) [Compound P-21]
≥ 80%: inhibition of growth at 20 ppm [1] | pest or weed control at 200 ppm [2] | inhibition of growth at 20 ppm [3] | inhibition of growth at 20 ppm [4] | pest or weed control at 200 ppm [6]

COc1ncc(NC2CCCC2)nc1C(=O)NC1CCC1(C)C (stereo not shown) [Compound P-1, 6-(cyclopentylamino)-N-(2,2-dimethylcyclobutyl)-3-methoxy-pyrazine-2-carboxamide]
≥ 80%: inhibition of growth at 20 ppm [1] | inhibition of growth at 20 ppm [3] | inhibition of growth at 20 ppm [4] | inhibition of growth at 20 ppm [5]

COc1ncc(Nc2cc(F)cc(F)c2)nc1C(=O)NC1C2CCOC2C1(C)C (stereo not shown) [Compound P-16, 6-(3,5-difluoroanilino)-N-(7,7-dimethyl-2-oxabicyclo[3.2.0]heptan-6-yl)-3-methoxy-pyrazine-2-carboxamide]
≥ 80%: inhibition of growth at 20 ppm [1] | pest or weed control at 200 ppm [2] | inhibition of growth at 20 ppm [3] | inhibition of growth at 20 ppm [4] | inhibition of growth at 20 ppm [5] | pest or weed control at 200 ppm (Alternaria solani) | pest or weed control at 200 ppm [6]

COc1ncc(Nc2cc(F)nc(F)c2)nc1C(=O)NCC1(C(F)(F)F)CC1 [Compound P-35, 6-[(2,6-difluoro-4-pyridyl)amino]-3-methoxy-N-[[1-(trifluoromethyl)cyclopropyl]methyl] pyrazine-2-carboxamide]
≥ 80%: pest or weed control at 200 ppm [2] | inhibition of growth at 20 ppm [4] | pest or weed control at 200 ppm [6]

CC1(NC(=O)c2cncc(Nc3cc(F)cc(F)c3)n2)CCCC1 [Compound P-48, 6-(3,5-difluoroanilino)-N-(1-methylcyclopentyl) pyrazine-2-carboxamide]
≥ 80%: inhibition of growth at 20 ppm [1] | inhibition of growth at 20 ppm [3] | inhibition of growth at 20 ppm [4] | inhibition of growth at 20 ppm [5]

COc1ncc(Nc2cc(F)cc(F)c2)nc1C(=O)NC1CC2CCOC21 (stereo not shown) [Compound P-28, 6-(3,5-difluoroanilino)-3-methoxy-N-(2-oxabicyclo[3.2.0]heptan-7-yl)pyrazine-2-carboxamide]
≥ 80%: pest or weed control at 200 ppm [2] | inhibition of growth at 20 ppm [4] | pest or weed control at 200 ppm (Alternaria solani) | pest or weed control at 200 ppm [6]

— patent US12528778B2, “Microbiocidal derivatives” (SYNGENTA CROP PROTECTION AG, priority 2019, dated 2026)
